Reference: patent publication US11472778B2, “Hepatitis C virus NS3/4A protease inhibitors” (priority 2017, dated 2022)
Where two headings read alike, the source gives them in different places.

How the values were obtained:
[1] = biological target: T1, GT1a D168A NS3/4A protease (UniProt P27958, D1194A, species not given); type: biochemical, Hepatitis C virus
T1 construct: rows headed: Ki (nM) D168A; Ki D168A; other: D168A variant
Method in brief: (§1)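 NS3/4A protease (2 nM; wild-type GT1a or D168A) pre-incubated 1 h at room temperature with increasing inhibitor in 50 mM Tris pH 7.5, 5% glycerol, 10 mM DTT, 0.6 mM LDAO, 4% DMSO. Ki from three independent data sets per construct; ΔG=RTlnKi.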

[2] = biological target: GT1a D168A NS3/4A protease; type: biochemical, Hepatitis C virus; details: fold change in Ki, D168A relative to WT
Method in brief: as §1

[3] = biological target: T2, wild-type GT1a NS3/4A protease (UniProt P27958); type: biochemical, Hepatitis C virus
T2 construct: Ki WT; other: wild-type HCV NS3/4A protease
Method in brief: as §1

[4] = test system: wild-type HCV replicon in Huh7 cells; experiment: Cell-based drug susceptibility (replicon) assay, wild-type; details: Hepatitis C virus, Huh-7, Table 9; read-out: Replicon EC50 (nM) WT
Method in brief: (§2)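 Replication is assessed in Huh7 cells electroporated with chimeric replicon RNA (Con1 1b luciferase reporter, H77 1a NS3) under escalating protease inhibitor concentrations, measuring relative light units at 96 h.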

[5] = biological target: GT1a R155K NS3/4A protease (UniProt P27958, R1181K, species not given); type: biochemical, Hepatitis C virus
Method: (§3) For each assay, 2 nM of NS3/4A protease (GT1a, R155K and D168A) was pre-incubated at room temperature for 1 h with increasing concentration of inhibitors in assay buffer (50 mM Tris, 5% glycerol, 10 mM DTT, 0.6 mM LDAO, and 4% dimethyl sulfoxide, pH 7.5). Inhibition assays were performed in non-binding surface 96-well black half-area plates (Corning) in a reaction volume of 60 μL. […] Three independent data sets were collected for each inhibitor with each protease construct. […] Gibbs free energy of binding was calculated using the following equation: ΔG=RTlnKi

[6] = biological target: GT1a R155K NS3/4A protease; type: biochemical, Hepatitis C virus; details: fold change in Ki, R155K relative to WT
Method: as §3

[7] = test system: HCV replicon A156T variant in Huh7 cells; experiment: microbe, parasite or virus in culture; type: cell-based, Hepatitis C virus; details: for EC50: Hepatitis C virus, Huh-7, read-out: Replicon EC50 (nM) A156T, Table 9; for Replicon EC50 (Fold change) A156T: Table 9, relative to WT
Method in brief: as §2

[8] = test system: HCV replicon R155K variant in Huh7 cells; experiment: microbe, parasite or virus in culture; type: cell-based, Hepatitis C virus; details: for EC50: Hepatitis C virus, Huh-7, read-out: Replicon EC50 (nM) R155K, Table 9; for Replicon EC50 (Fold change) R155K: Table 9, relative to WT
Method in brief: as §2

[9] = test system: HCV replicon D168A variant in Huh7 cells; experiment: microbe, parasite or virus in culture; type: cell-based, Hepatitis C virus; details: Table 9; relative to WT
Method in brief: as §2

[10] = test system: HCV replicon D168V variant in Huh7 cells; experiment: microbe, parasite or virus in culture; type: cell-based, Hepatitis C virus; details: for Replicon EC50 (Fold change) D168V: relative to WT
Method in brief: as §2

[11] = read-out: Ki (nM) D168A, Table 8, linear inhibitors
[12] = read-out: Ki D168A, D168A variant
[13] = read-out: Ki (nM) WT, Table 8, linear inhibitors
[14] = read-out: Ki WT, wild-type HCV NS3/4A protease
[15] = read-out: Ki (nM) R155K, Table 8, linear inhibitors
[16] = read-out: Ki R155K, R155K variant
[17] = Hepatitis C virus, Huh-7, read-out: Replicon EC50 (nM) D168V, Table 9
[18] = read-out: Replicon EC50 (nM) D168V, Table 9

For `C=C[C@@H]1C[C@]1(NC(=O)[C@@H]1C[C@@H](Oc2nc3cc(OC)ccc3nc2Cl)CN1C(=O)[C@@H](NC(=O)OC1CCCC1)C(C)(C)C)C(=O)NS(=O)(=O)C1(C)CC1` [Compound 12d, Cyclopentyl ((S)-1-((2S,4R)-4-((3-chloro-7-methoxyquinoxalin-2-yl)oxy)-2-(((1R,2S)-1-(((1-methylcyclopropyl)sulfonyl)carbamoyl)-2-vinylcyclopropyl)carbamoyl)pyrrolidin-1-yl)-3,3-dimethyl-1-oxobutan-2-yl)carbamate], the Ki [1, 11] was 51 ± 6 nM, the Ki [1, 12] was 51 ± 6 nM and the “Ki D168A (fold change)” value [2] was 13. For the same compound, the Ki [3, 13] was 3.9 nM, the Ki [3, 14] was 3.9 ± 0.7 nM and the EC50 [4] was 3.1 nM. The Ki [5, 15] was 5.2 ± 0.8 nM, the Ki [5, 16] was 5.2 ± 0.8 nM and the “Ki R155K (fold change)” value [6] was 1.3. For the same compound, the EC50 [7] was 163 nM, the “Replicon EC50 (Fold change) A156T” value [7] was “(53) fold” and the EC50 [8] was 27 nM. The “Replicon EC50 (Fold change) R155K” value [8] was “(8.7) fold”, the “Replicon EC50 (Fold change) D168A” value [9] was “(8.1) fold” and the EC50 [10, 17] was 12 to 38 nM. For the same compound, the “Replicon EC50 (Fold change) D168V” value ([10]; Table 9) was “(7.4) fold” and the EC50 [10, 18] was 23 nM.

With `C=C[C@@H]1C[C@]1(NC(=O)[C@@H]1C[C@@H](Oc2nc3cc(OC)ccc3nc2Cl)CN1C(=O)[C@@H](NC(=O)OC(C)(C)C)C(C)(C)C)C(=O)NS(=O)(=O)C1(C)CC1` [Compound 10d, tert-Butyl ((S)-1-((2S4R)-4-((3-chloro-7-methoxyquinoxalin-2-yl)oxy)-2-(((1R,2SD)-1-(((1-methylcyclopropyl)sulfonyl)carbamoyl)-1-vinylcyclopropyl)carbamoyl)pyrrolidin-1-yl)-3,3-dimethyl-1-oxobutan-2-yl)carbamate] the Ki [1, 11] was 119 ± 16 nM, the Ki [1, 12] was 119 ± 16 nM and the “Ki D168A (fold change)” value [2] was 31. For the same compound, the Ki [3, 13] was 6.1 ± 1.1 nM, the Ki [3, 14] was 6.1 ± 1.1 nM and the EC50 [4] was 6.3 nM. The Ki [5, 15] was 3.8 ± 0.6 nM, the Ki [5, 16] was 3.8 ± 0.6 nM and the “Ki R155K (fold change)” value [6] was 0.7. For the same compound, the EC50 [7] was 100 nM, the “Replicon EC50 (Fold change) A156T” value [7] was “(16) fold” and the EC50 [8] was 10 nM. For the same compound, the “Replicon EC50 (Fold change) R155K” value [8] was “(1.6) fold”, the “Replicon EC50 (Fold change) D168A” value [9] was “(4.8) fold” and the EC50 [10, 17] was 12 to 38 nM. For the same compound, the “Replicon EC50 (Fold change) D168V” value ([10]; Table 9) was “(1.9) fold” and the EC50 [10, 18] was 12 nM.

In the case of `C=C[C@@H]1C[C@]1(NC(=O)[C@@H]1C[C@@H](Oc2nc3cc(OC)ccc3nc2C)CN1C(=O)[C@@H](NC(=O)OC(C)(C)C)C(C)(C)C)C(=O)NS(=O)(=O)C1(C)CC1` [Compound 10b, tert-Butyl ((S)-1-((2S,4R)-4-((7-methoxy-3-methylquinoxalin-2-yl)oxy)-2-(((1R,2S)-1-(((1-methylcyclopropyl)sulfonyl)carbamoyl)-2-vinylcyclopropyl)carbamoyl)pyrrolidin-1-yl)-3,3-dimethyl-1-oxobutan-2-yl)carbamate], the Ki [1, 11] is reported as 265 ± 26 nM, the Ki [1, 12] is reported as 265 ± 26 nM and the “Ki D168A (fold change)” value [2] is reported as 19. It also gave a Ki [3, 13] of 14 ± 2.1 nM, a Ki [3, 14] of 14 ± 2.1 nM and a Ki [5, 15] of 14 ± 1.7 nM. For the same compound, the Ki [5, 16] was 14 ± 1.7 nM and the “Ki R155K (fold change)” value [6] was 1.0.

For `C=C[C@@H]1C[C@]1(NC(=O)[C@@H]1C[C@@H](Oc2nc3cc(OC)ccc3nc2C(C)C)CN1C(=O)[C@@H](NC(=O)OC(C)(C)C)C(C)(C)C)C(=O)NS(=O)(=O)C1(C)CC1` [Compound 10c, tert-Butyl ((S)-1-((2S,4R)-4-((3-isopropyl-7-methoxyquinoxalin-2-yl)oxy)-2-(((1R,2S)-1-(((1-methylcyclopropyl)sulfonyl)carbamoyl)-2-vinylcyclopropyl)carbamoyl)pyrrolidin-1-yl)-3,3-dimethyl-1-oxobutan-2-yl)carbamate], the Ki [1, 11] was 1180 ± 170 nM, the Ki [1, 12] was 1180 ± 170 nM and the “Ki D168A (fold change)” value [2] was 41. For the same compound, the Ki [3, 13] was 29 ± 9.4 nM, the Ki [3, 14] was 29 ± 9.4 nM and the Ki [5, 15] was 27 ± 5.6 nM. For the same compound, the Ki [5, 16] was 27 ± 5.6 nM and the “Ki R155K (fold change)” value [6] was 0.9.
